Article PMC2358886, “Evolution of pharmacologic specificity in the pregnane X receptor” (BMC Evolutionary Biology, 2008)
Where two headings read alike, the source gives them in different places.

Columns and labels:
human PXR [1] = target: T1, human PXR (Homo sapiens, UniProt O75469)
T1 sequence (O75469 1-434): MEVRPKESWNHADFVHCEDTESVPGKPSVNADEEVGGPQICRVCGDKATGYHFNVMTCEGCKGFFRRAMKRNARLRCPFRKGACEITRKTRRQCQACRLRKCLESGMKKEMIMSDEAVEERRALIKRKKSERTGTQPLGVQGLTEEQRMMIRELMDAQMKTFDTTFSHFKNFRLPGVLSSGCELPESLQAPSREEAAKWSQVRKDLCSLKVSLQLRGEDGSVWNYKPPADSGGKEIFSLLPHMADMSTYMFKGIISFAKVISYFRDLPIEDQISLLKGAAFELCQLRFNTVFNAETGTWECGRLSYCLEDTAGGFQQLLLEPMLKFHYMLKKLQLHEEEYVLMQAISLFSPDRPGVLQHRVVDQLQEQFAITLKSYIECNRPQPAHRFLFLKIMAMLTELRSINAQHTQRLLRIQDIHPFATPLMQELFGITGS

zebrafish PXR = target: T2, zebrafish PXR (Danio rerio, UniProt A5WYG8)
T2 sequence (A5WYG8 144-430): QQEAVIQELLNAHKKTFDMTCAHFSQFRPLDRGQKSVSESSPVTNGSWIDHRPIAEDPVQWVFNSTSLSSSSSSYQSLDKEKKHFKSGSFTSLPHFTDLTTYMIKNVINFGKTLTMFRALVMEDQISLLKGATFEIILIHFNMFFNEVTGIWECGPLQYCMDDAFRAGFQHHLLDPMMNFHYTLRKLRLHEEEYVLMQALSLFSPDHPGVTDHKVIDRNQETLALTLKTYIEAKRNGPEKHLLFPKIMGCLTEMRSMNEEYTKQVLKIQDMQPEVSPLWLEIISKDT

human PXR [2] = target: T1, human PXR; assay: PXR activation luciferase reporter assay, human PXR in HepG2-NTCP cells; settings: hPXR Activity, -log(EC50), EC50 in molar units, activation of human PXR
[3] = -log(EC50), EC50 in molar units, activation of zebrafish PXR

Molecule | hPXR Activity (human PXR [1]) | Toxicity (HepG2 cells) | zfPXR Activity (zebrafish PXR; [3]) | other results
4-Pregnen-20β-ol-3,20-dione-17α-sulfate [PR22] | 5.73 | None | None | 
C[C@]12CC[C@H](O)CC1=CC[C@@H]1[C@@H]2CC[C@]2(C)C(=O)CC[C@@H]12 [AN9, 5-Androsten-3β-ol-17-one] | 4.49 | None |  | EC50 (human PXR [1]): 11 to 50 µM; hPXR Efficacy (human PXR [1]): 0.52; EC50 (zebrafish PXR): 11 to 50 µM; zfPXR Activity (zebrafish PXR): 4.89; zfPXR Efficacy (zebrafish PXR): 0.35
C[C@H](CC(=O)O)[C@H]1CC[C@H]2[C@@H]3CC[C@@H]4C[C@H](O)CC[C@]4(C)[C@H]3C[C@H](O)[C@]12C [BI26, 23-Nordeoxycholic acid] | 4.79 | None | None | 
C[C@H](CC(=O)O)[C@H]1CC[C@H]2[C@@H]3[C@H](O)C[C@@H]4C[C@H](O)CC[C@]4(C)[C@H]3C[C@H](O)[C@]12C [BI27, 23-Norcholic acid] | 4.02 | None | None | 
C[C@H](CCCO)[C@H]1CC[C@H]2[C@@H]3[C@H](O)C[C@H]4C[C@H](O)CC[C@]4(C)[C@H]3C[C@H](O)[C@]12C [BI29, 5α-Cholan-3α,7α,12α,-24-tetrol] | None | 50 µM | None | 
C[C@H](CCCOS(=O)(=O)O)[C@H]1CC[C@H]2[C@@H]3[C@H](O)C[C@H]4CC(=O)CC[C@]4(C)[C@H]3C[C@H](O)[C@]12C [BI32, 5α-Cholan-7α,12α-diol-3-one-24-sulfate] | None | None | None | 
C[C@H](CCC(O)C(CO)CO)[C@H]1CC[C@H]2[C@@H]3[C@H](O)C[C@@H]4C[C@H](O)CC[C@]4(C)[C@H]3C[C@H](O)[C@]12C (stereo partly drawn) [BI35, 5β-Cholestan-3α,7α,12α,24,26-hexol] | None | 100 µM | None | 
C[C@H](CCCC(CO)CO)[C@H]1CC[C@H]2[C@@H]3[C@H](O)C[C@@H]4C[C@H](O)CC[C@]4(C)[C@H]3C[C@H](O)[C@]12C [BI37, 5β-Cholestan-3α,7α,12α,26,27-pentol] | None |  | None | Toxicity (HepG2 cells; human, 24 hr): 50 µM
CC(CO)CCC[C@@H](C)[C@H]1[C@H](O)C[C@H]2[C@@H]3[C@H](O)C[C@H]4C[C@@H](O)CC[C@]4(C)[C@H]3CC[C@]12C (stereo partly drawn) [BI40, 5α-Cholestan-3β,7α,16α,27-tetrol] | None |  | None | Toxicity (HepG2 cells; human, 24 hr): 100 µM
C[C@]12CC[C@@H]3c4ccc(O)cc4CC[C@H]3[C@@H]1C[C@@H](O)[C@@H]2O [ES3, 1,3,5(10)-Estratrien-3,16α,17β-triol] | None |  | None | Toxicity (HepG2 cells; human, 24 hr): 200 µM
C[C@]12CC[C@@H]3c4ccc(O)cc4CC[C@H]3[C@@H]1C[C@@H](O)C2=O [ES4, 1,3,5(10)-Estratrien-3,16α-diol-17-one] | 5.60 | None | 5.70 | zfPXR Efficacy (zebrafish PXR): 0.17
COc1c(O)ccc2c1CC[C@@H]1[C@@H]2CC[C@]2(C)C(=O)CC[C@@H]12 [ES5, 1,3,5(10)-Estratrien-3-ol-4-methoxy-17-one] | 5.40 | None | 5.62 | zfPXR Efficacy (zebrafish PXR): 0.19
C[C@]12CC[C@@H]3c4ccc(OS(=O)(=O)O)cc4CC[C@H]3[C@@H]1CCC2=O [ES8, 1,3,5(10)-Estratrien-17-one-3-sulfate] | 5.47 | None | None | 
C#C[C@]1(O)CC[C@H]2[C@@H]3CCc4cc(O)ccc4[C@H]3CC[C@@]21C [ES11, 1,3,5(10)-Estratrien-17α-ethinyl-3,17β-diol] |  |  | None | hPXR Efficacy (human PXR [1]; human): 0.68; Toxicity (HepG2 cells; human, 24 hr): 200 µM
Nc1cccc(C(=O)O)c1 [MI2, 3-Aminobenzoic acid] | None | None | None | 
CCOP(=S)(OCC)Oc1nc(Cl)c(Cl)cc1Cl [MI10, Chlorpyrifos] |  | None |  | hPXR Efficacy (human PXR [1]; human): 2.05; EC50 (human PXR [2]): 25.7 µM
